pIC50: −log10 of the molar value.

The subject of one assay is human KRAS G12C mutated cell line MIA PaCa-2. The assay is described as follows: Inhibition of proliferation of MIA PaCa-2 cells (CellTiter-Glo, 7 day). Type of assay: cell-based. Conditions: 168 h, Table 1, CellTiter-Glo luminescence read on day 7, read-out: MIA PaCa-2 IC50. An excerpt:
The present example evaluates the ability of compounds provided herein to inhibit proliferation of KRAS mutant cells.
The proliferation inhibitory effect was investigated in the human KRAS G12C mutated cell line MIA PaCa-2 (Yunis et al., 1977, Int. J. Cancer 19(1):128-135; ATCC catalog no. CRL-1420). Cells were maintained in RPMI-1640 medium (ThermoFisher catalog no. 61870036) supplemented with 10% of Heat Inactivated FBS (ThermoFisher catalog no. A31605) and 1% Pen-Strep (ThermoFisher catalog no. 10378016) and cultured at 37° C. in a humidified incubator with 5% CO2. Cell lines were grown by adhering to culture flasks, and the cells were maintained in a range 70%-80% confluency.
ATP is present in all metabolically active cells and is considered as a marker for cell viability and proliferation. Metabolic cell activity was determined using the CellTiter-Glo kit (Promega catalog no. G7572), an ATP monitoring system based on the production of luminescence by the reaction of ATP with added UltraGlo® recombinant luciferase (Kawano et al., 2016, PLOS One, 8; 11(7):e0158888), according to the supplier's experimental recommendations. The assay was based on a 96 well plate format.
Test compounds were dissolved at 10 mM in DMSO (Sigma catalog no. D8418; purity >99.9%) and stored at −20° C. Eight concentrations of test compound were assessed in duplicate in an individual test occasion in parallel in the selected cell lines. MRTX-849 and AMG-510 were used as reference compounds and tested in duplicate at eight concentrations. 100% of proliferation is represented by the untreated cells (0.2% DMSO).
On the day of the experiment (TO), cells were detached with TrypLE (ThermoFisher catalog no. 12604054) and quantified using the Vi-CELL XR Cell Viability (Beckman Coulter) analyzer and diluted with fresh medium to obtain the cell density of about 1000 cells per 200 μL medium. 200 μL of cell suspension were added into wells in the 96 well plate.
After 2 hours from seeding cells, compounds were added using a D300e compound dispenser (Tecan Trading AG) at desired concentrations with shaking between each compound dispensed. Cell plates containing 200 μL/well were incubated at 37° C. in a humidified incubator with 5% CO2.
On day T3, 150 μL of growth media per well were removed from plates containing the samples, 150 uL fresh growth media were added to each well, and fresh compounds were added using a D300e compound dispenser (Tecan Trading AG) at desired concentrations with shaking between each compound dispensed. Cell plates containing 200 uL/well were incubated at 37° C. in a humidified incubator with 5% CO2. On day T7 plates containing the samples were equilibrated at room temperature for approximately 15 min, and then 40 μL/well of the Promega CellTiterGlo® reagent was added. Contents were mixed for 30 minutes on an orbital shaker to induce cell lysis. Luminescence was read using a Synergy Neo 2 (Agilent Technologies.
Data was expressed as % of inhibition compared to the 0.2% DMSO negative control, and is calculated as follows: % inhibition=100−[(RLU sample)×100/(RLU controls*)], where * indicates the average for 0.2% DMSO. […]
On the day of the experiment (TO), cells were detached with TrypLE (ThermoFisher catalog no. 12604054), quantified using the Vi-CELL XR Cell Viability (Beckman Coulter) analyzer and resuspended in fresh medium at a cell density of about 1000 cells per 200 μL medium. 200 μL of cell suspension were added to each well of a 96 well plate.
Two hours after seeding cells, compounds were added at desired concentrations using a D300e compound dispenser (Tecan Trading AG) with shaking after each compound addition. Assay plates were incubated at 37° C. in a humidified incubator with 5% CO2.
On day 3 (T3) 150 μL of medium from assay plates were removed. 150 μL fresh medium and compounds were added at desired concentrations using a D300e compound dispenser (Tecan Trading AG) with shaking after each compound addition. […]
On the technique in general: ATP-based viability assays read luminescence as a measure of living cells.
For orientation: pIC50 means the IC50 on a negative log10 scale, so that one unit is a factor of ten. For `C=CC(=O)N1[C@@H]2CC[C@H]1CN(c1nc(OC[C@@]34CCCN3C[C@H](F)C4)nc3c(F)c(-c4cc(O)cc(Cl)c4C4CC4)ccc13)C2` [Compound 1, 1-((1R,5S)-3-(7-(3-chloro-2-cyclopropyl-5-hydroxyphenyl)-8-fluoro-2-(((2R,7aS)-2-fluorotetrahydro-1H-pyrrolizin-7a(5H)-yl)methoxy)quinazolin-4-yl)-3,8-diazabicyclo[3.2.1]octan-8-yl)prop-2-en-1-one], the negative-log IC50 (pIC50) was 9.13.

The assay is the same for the next values; noted with them: 168 h, Table 2, CellTiter-Glo luminescence read on day 7, read-out: MIA PaCa-2 IC50.
Consider `Oc1cc(Cl)c(C2CC2)c(-c2ccc3c(N4C[C@H]5CC[C@@H](C4)N5)nc(OC[C@@]45CCCN4C[C@H](F)C5)nc3c2F)c1` [Compound 201, 3-(4-((1R,5S)-3,8-diazabicyclo[3.2.1]octan-3-yl)-8-fluoro-2-(((2R,7aS)-2-fluorotetrahydro-1H-pyrrolizin-7a(5H)-yl)methoxy)quinazolin-7-yl)-5-chloro-4-cyclopropylphenol], for which the pIC50 was 6.45. With `Oc1cc(Cl)c(C2CC2)c(-c2ccc3c(C4CC5CCC(C4)N5)nc(OCC45CCCN4CC(F)C5)nc3c2F)c1` (stereo not shown) [Compound 205], the pIC50 is 6.45.

The assay is the same for the next values; noted with them: 168 h, Table 3, 7 day, mean, read-out: MIA PaCa-2 IC50 (μM) 7 day Mean.
The IC50 is the concentration at which inhibition is half-maximal. With `C=CC(=O)N1CCC(c2nc(OC[C@@]34CCCN3C[C@H](F)C4)nc3c(F)c(-c4cc(O)cc5ccc(F)c(F)c45)ncc23)C[C@H]1C` (stereo in doubt) [Compound 334, 1-[(2R)-4-[7-(7,8-difluoro-3-hydroxy-1-naphthyl)-8-fluoro-2-[[(2R,8S)-2-fluoro-1,2,3,5,6,7-hexahydropyrrolizin-8-yl]methoxy]pyrido[4,3-d]pyrimidin-4-y1]-2-methyl-1-piperidyl]prop-2-en-1-one], the half-maximal inhibitory concentration (IC50) is 0.00443 µM. For the compound `C=CC(=O)N1C2CCC1CN(c1nc(OCC34CCCN3CCC4)nc3c(F)c(-c4cccc(Cl)c4C4CC4)ncc13)C2` [Compound 301, 1-[3-[7-(3-chloro-2-cyclopropyl-phenyl)-8-fluoro-2-(1,2,3,5,6,7-hexahydropyrrolizin-8-ylmethoxy)pyrido[4,3-d]pyrimidin-4-yl]-3,8-diazabicyclo[3.2.1]octan-8-yl]prop-2-en-1-one], the IC50 was 0.16 µM. On to `C=CC(=O)N1C2CCC1CN(c1nc(OC[C@@]34CCCN3C[C@H](F)C4)nc3c(F)c(-c4cc(O)cc(Cl)c4C4CC4)ncc13)C2` [Compound 302, 1-[3-[7-(3-chloro-2-cyclopropyl-5-hydroxy-phenyl)-8-fluoro-2-[[(2R,8S)-2-fluoro-1,2,3,5,6,7-hexahydropyrrolizin-8-yl]methoxy]pyrido[4,3-d]pyrimidin-4-yl]-3,8-diazabicyclo[3.2.1]octan-8-yl]prop-2-en-1-one], for which the IC50 was determined as 0.000287 µM. For the compound `C#Cc1c(F)ccc2cccc(-c3ncc4c(N5CC6CCC(C5)N6C(=O)C=C)nc(OCC56CCCN5CCC6)nc4c3F)c12` [Compound 303, 1-[3-[7-(8-ethynyl-7-fluoro-1-naphthyl)-8-fluoro-2-(1,2,3,5,6,7-hexahydropyrrolizin-8-ylmethoxy)pyrido[4,3-d]pyrimidin-4-yl]-3,8-diazabicyclo[3.2.1]octan-8-yl]prop-2-en-1-one], the IC50 amounted to 0.0006 µM.

`C=CC(=O)N1C2CCC1CN(c1nc(OC[C@@]34CCCN3C[C@H](F)C4)nc3c(F)c(-c4c(C)c(Cl)cc5[nH]ncc45)ncc13)C2` [Compound 304, 1-[3-[7-(6-chloro-5-methyl-1H-indazol-4-yl)-8-fluoro-2-[[(2R,8S)-2-fluoro-1,2,3,5,6,7-hexahydropyrrolizin-8-yl]methoxy]pyrido[4,3-d]pyrimidin-4-yl]-3,8-diazabicyclo[3.2.1]octan-8-yl]prop-2-en-1-one]: the IC50 came out at 0.017 µM. On the same count and under the same terms, the value for `C=CC(=O)N1C2CCC1CN(c1nc(OC[C@@]34CCCN3C[C@H](F)C4)nc3c(F)c(-c4cc(O)cc5cccc(Cl)c45)ncc13)C2` [Compound 305, 1-[3-[7-(8-chloro-3-hydroxy-1-naphthyl)-8-fluoro-2-[[(2R,8S)-2-fluoro-1,2,3,5,6,7-hexahydropyrrolizin-8-yl]methoxy]pyrido[4,3-d]pyrimidin-4-y1]-3,8-diazabicyclo[3.2.1]octan-8-yl]prop-2-en-1-one] was 0.0023 µM. For the compound `C=CC(=O)N1C2CCC1CN(c1nc(OC[C@@]34CCCN3C[C@H](F)C4)nc3c(F)c(-c4cc(O)cc5ccc(F)c(F)c45)ncc13)C2` [Compound 306, 1-[3-[7-(7,8-difluoro-3-hydroxy-1-naphthyl)-8-fluoro-2-[[(2R,8S)-2-fluoro-1,2,3,5,6,7-hexahydropyrrolizin-8-yl]methoxy]pyrido[4,3-d]pyrimidin-4-yl]-3,8-diazabicyclo[3.2.1]octan-8-yl]prop-2-en-1-one], the IC50 amounted to 0.0015 µM.

`C=C(F)C(=O)N1C2CCC1CN(c1nc(OC[C@@]34CCCN3C[C@H](F)C4)nc3c(F)c(-c4cc(O)cc(Cl)c4C4CC4)ccc13)C2` [Compound 307, 1-[3-[7-(3-chloro-2-cyclopropyl-5-hydroxy-phenyl)-8-fluoro-2-[[(2R,8S)-2-fluoro-1,2,3,5,6,7-hexahydropyrrolizin-8-yl]methoxy]quinazolin-4-yl]-3,8-diazabicyclo[3.2.1]octan-8-yl]-2-fluoro-prop-2-en-1-one]: the IC50 is 0.126 µM. Take `C=CC(=O)N1C2CCC1CN(c1nc(OC[C@@]34CCCN3C[C@H](F)C4)nc3cc(-c4cc(O)cc(Cl)c4C4CC4)c(F)cc13)C2` [Compound 308, 1-[3-[7-(3-chloro-2-cyclopropyl-5-hydroxy-phenyl)-6-fluoro-2-[[(2R,8S)-2-fluoro-1,2,3,5,6,7-hexahydropyrrolizin-8-yl]methoxy]quinazolin-4-y1]-3,8-diazabicyclo[3.2.1]octan-8-yl]prop-2-en-1-one]: the IC50 amounted to 0.0282 µM.

Regarding `C=CC(=O)N1C2CCC1CN(c1nc(OC[C@@]34CCCN3C[C@H](F)C4)nc3cc(-c4cc(O)cc(Cl)c4C4CC4)cnc13)C2` [Compound 309], the IC50 is > 1 µM. `C=CC(=O)N1CCC2(c3nc(OC[C@@]45CCCN4C[C@H](F)C5)nc4c(F)c(-c5cc(O)cc6ccccc56)ncc34)CC2C1` (stereo partly drawn) [Compound 310, 1-[6-[8-fluoro-2-[[(2R,8S)-2-fluoro-1,2,3,5,6,7-hexahydropyrrolizin-8-yl]methoxy]-7-(3-hydroxy-1-naphthyl)pyrido[4,3-d]pyrimidin-4-yl]-3-azabicyclo[4.1.0]heptan-3-yl]prop-2-en-1-one]: the IC50 is > 1 µM. For the compound `C=CC(=O)N1C[C@H]2C[C@@H]1CN2c1nc(OC[C@@]23CCCN2C[C@H](F)C3)nc2c(F)c(-c3cc(O)cc(Cl)c3C3CC3)ccc12` [Compound 311, 1-[(1R,4R)-5-[7-(3-chloro-2-cyclopropyl-5-hydroxy-phenyl)-8-fluoro-2-[[(2R,8S)-2-fluoro-1,2,3,5,6,7-hexahydropyrrolizin-8-yl]methoxy]quinazolin-4-yl]-2,5-diazabicyclo[2.2.1]heptan-2-yl]prop-2-en-1-one], the IC50 was > 1 µM. As to `C=CC(=O)N1C[C@H]2C[C@@H]1CN2c1nc(OC[C@@]23CCCN2C[C@H](F)C3)nc2cc(-c3cc(O)cc(Cl)c3C3CC3)cnc12` [Compound 312, 1-[(1R,4R)-5-[7-(3-chloro-2-cyclopropyl-5-hydroxy-phenyl)-2-[[(2R,8S)-2-fluoro-1,2,3,5,6,7-hexahydropyrrolizin-8-yl]methoxy]pyrido[3,2-d]pyrimidin-4-y1]-2,5-diazabicyclo[2.2.1]heptan-2-yl]prop-2-en-1-one], the IC50 was > 1 µM.

The values above are taken from patent US20240409558A1, “IRREVERSIBLE INHIBITORS OF KRAS” (BIOMEA FUSION, INC., priority 2021, published 2024).
